Source: patent US20240402608A1, “METHOD FOR NON-INVASIVE PRODUCTION OF DEFINED STRUCTURES INSIDE COMPARTMENTS AND COMPARTMENT” (MAX-PLANCK-GESELLSCHAFT ZUR FÖRDERUNG DER WISSENSCHAFTEN …, priority 2021, published 2024)
{Atto647N} = Atto 647N fluorescent dye

Columns and labels:
[1] = Influx of fluorophore or ssDNA into GUVs with and without printed pore, confocal imaging; type: physicochemical; settings: for influx into GUV containing a printed pore: GUV with printed hydrogel pore
Protocol: Representative confocal images of two adjacent GUVs (red, λex=488 nm) in the xy-(left) and an xz-plane (right, as indicated by white dashed line) are shown in FIG. 11c. […] The scalebar in the image of the xy-plane represents 20 μm.
Further representative confocal images of two adjacent GUVs, similar as described in FIG. 11c, are shown in FIG. 11d. […] The scalebar in the image of the xy-plane represents 20 μm.
Next, it was tested if the pores can transport larger and charged molecular cargo.
0.01 mg ml-1 Rhodamine B acrylate were added to the final solution for fluorescence microscopy.

[2] = Membrane permeability via fraction of successful printing attempts inside GUVs over time; settings: not told
Protocol: The membrane permeability was determined by adding the respective components after incubation of the GUVs with the remaining components of the photoresist and quantifying the fraction of successful printing attempts, Nprint/Ntot, inside the GUVs over time (n=30 for each condition and time point). An exponential fit (black line) was used to determine the point in time of 50% success rate.
The resist was polymerized inside the GUV by two-photon 3D laser printing. […] The printing success rate was used as an indirect way to determine the membrane permeability of the non-fluorescent components. For this purpose, PEGDA or LAP was added to GUVs that were pre-incubated with the other resist components. Subsequently, the fraction of successful printing attempts, Npol/Ntot, was quantified for 30 GUVs per time point over the course of up to 100 minutes.
We use the interdependence of the permeability and the concentration inside of a GUV Cin [1] to determine the membrane permeability P via printing attempts:
where R is the GUV radius, Cout the concentration outside of the GUV and t the time.

Row | Molecule | influx into GUV containing a printed pore [1] | influx into GUV containing a printed pore ([1]; listed as single-stranded DNA) | influx into adjacent GUV without printed pore ([1]; GUV without pore) | Papp at 12 mg mL-1 [2] [×10⁻⁶ cm/s]
1 | 5′-Atto 647N TTTTTTAATTTTT 3′ (DNA, 5' {Atto647N}, backbone not given here) [13 base-long single-stranded DNA, 13 base-long single-stranded DNA labelled with Atto647N] | can diffuse into the GUV across the printed pore | influx | does not show DNA import | –
2 | Cc1cc(C)c(C(=O)P(=O)([O-])c2ccccc2)c(C)c1.[Li+] [LAP, Lithium phenyl-2,4,6-trimethylbenzoylphosphinate] | – | – | – | 0.0987 ± 0.0325
